# Test results from patent publication US20100267952A1, “USE OF NOVEL COMPOUND HAVING AFFINITY FOR AMYLOID, AND PROCESS FOR PRODUCTION OF THE SAME” (NIHON MEDI-PHYSICS CO., LTD., priority 2007, published 2010).
# Columns and labels:
# [1] = test system: Salmonella typhimurium TA100; assay: Reverse mutation test (Ames test), TA100; type: cell-based
# Description: (§1) In order to examine mutagenicity of Compound I-1, I-2, I-4 and I-5, reverse mutation test using Salmonella typhimurium TA98 and TA100 (hereinafter referred to as Ames test) was conducted.
# (§2) The test was conducted without addition of S9mix and with addition of S9mix. Dimethylsulfoxide was used as a negative control. A positive control was 2-(2-furyl)-3-(5-nitro-2-furyl)acrylamide in case S9mix was not added, and 2-aminoanthracene in case S9mix was added.
# (§3) The amount of each sample to be added to the test plate was 7 dosages (geometric ratio 4) with the maximum dose being 1250 μg/plate for Compounds I-1 and I-5, and 7 dosages (geometric ratio 3) with the maximum dose being 5000 μg/plate for Compounds I-2 and I-4. After a sample to be examined and a strain (TA98 or TA100), or a sample to be examined, S9mix and the strain were mixed together, the mixture was multilayered using soft agar on a medium of a test plate, and then incubated at 37° C. for 48 hours.
# [2] = test system: Salmonella typhimurium TA98 and TA100; assay: Reverse mutation test (Ames test), overall judgment; type: cell-based; details: TA98 and TA100, with and without S9mix
# Description: as §1, §2, §3
# The numbers of reverse mutation colonies of the respective strains in the group treated with Compounds I-1, I-2, I-4 and I-5 were less than two times the number in the group treated with the negative control, regardless of addition of S9mix and the addition amount of a sample to be examined. From the aforementioned results, it is judged that Compounds I-1, I-2, I-4 and I-5 are negative in the Ames test and have no mutagenicity.
# [3] = test system: Chinese Hamster fibroblast cell line (CHL/IU cell); assay: Chromosome aberration test; type: cell-based; details: with or without S9 short-term treatment and 24-hour continuous treatment; 0.15-1.2 mg/mL
# Description: In order to examine whether Compound I-4 can induce chromosome aberration, the chromosome aberration test was conducted using Chinese Hamster fibroblast cell line (CHL/IU cell) in a culture system with or without addition of S9 by short-term treatment process and in a 24-hour culture system by continuous treatment process. The addition amount of a sample to be tested was set to 1.2, 0.6, 0.3, and 0.15 mg/mL for all the respective culture systems.
# [4] = test system: bone marrow cells of Crlj:CD1 (ICR) male mouse; assay: Micronucleus test; type: in vivo; details: single oral administration 250-2000 mg/kg, 24 and 48 hours
# Description: In order to study mutagenicity (in vivo) of Compound I-4, induction of micronucleated polychromatic erythrocyte (hereinafter referred to as MNPCE) was examined using bone marrow cells of Crlj:CD1 (ICR) male mouse.
# 0 mg/kg (negative control group), 250, 500, 1000 and 2000 mg/kg (test sample group) were set as doses for the test. Mice were sacrificed 24 and 48 hours after single oral administration, and bone marrow smear was prepared and observed. Further, a single dose of MMC at 2 mg/kg was abdominally administrated in positive control group, mice were sacrificed 24 hours after the administration, and then bone marrow smear was prepared and observed.
# As statistical analysis, significance tests were conducted by Wilcoxon rank sum test for the appearance frequency of MNPCE and the ratio of polychromatic erythrocyte (hereinafter referred to as PCE) to the total red blood cell (hereinafter referred to as RBC) in each administration group concerning the test sample and positive control groups relative to the negative control group and concerning these groups relative to each other where the significance level was set to less than 5% and less than 1%, respectively.
# [5] = test system: Salmonella typhimurium TA98; assay: Reverse mutation test (Ames test), TA98; type: cell-based
# Description: as §1, §2, §3
# [6] = target: T1, amyloid (aggregated Aβ1-40) (Homo sapiens, UniProt P05067); assay: Measurement of affinity with amyloid: inhibition of [125I]3′-I-BTA-0 binding; details: [125I]3′-I-BTA-0 400 pmol/L, amyloid 1 μmol/L, 22° C., 3 hours
# T1 construct: Aβ1-40 (Peptide Institute, INC.) was dissolved in phosphate buffer (pH 7.4); purchased Peptide Institute, INC
# T1 sequence (P05067 672-711 limits assumed): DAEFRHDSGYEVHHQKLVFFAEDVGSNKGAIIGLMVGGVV
# Description: Affinity of the present compounds with amyloid was examined by the following in vitro binding tests.
# (1) Aβ1-40 (Peptide Institute, INC.) was dissolved in phosphate buffer (pH 7.4) and shaken at 37° C. for 62-72 hours, to obtain a 1 mg/mL suspension of aggregated Aβ (hereinafter referred to as amyloid suspension in this Example).
# (3) According to the method described in a literature (Wang, Y., et al., J. Labeled Compounds Radiopharmaceut. 44, 5239 (2001)), [^125I]2-(3′-iodo-4′-aminophenyl)benzothiazole (hereinafter referred to as […]) was prepared from a labeling precursor 2-(4′-aminophenyl)benzothiazole, and dissolved in ethanol.
# (5) Samples in which [^125I]3′-I-BTA-0, each compound for evaluation and amyloid were dissolved in a 0.1% bovine serum albumin-containing phosphate buffer (pH 7.4) at final concentrations shown in Table 1-2 were prepared. The resulting samples were filled in each well (about 0.3 mL in volume) of a 96-well microplate.
# (6) The microplate filled with the sample solutions was shaken at a given rate (400 rpm) at 22° C. for 3 hours. Then, each sample solution was filtered through a glass fiber filter (trade name: Mulutiscreen™-FC, manufactured by Millipore), to separate the [^125I]3′-I-BTA-0 attached to amyloid from the free [^125I]3′-I-BTA-0.
# (7) The glass fiber filter used for the filtration of each sample solution was washed with a 0.1% bovine serum albumin-containing phosphate buffer (pH 7.4) (0.5 mL×5), and radioactivity of the glass fiber filter was measured with an autowell gamma system (manufactured by Aloka, Type: ARC-301B).
# (8) Separately, a solution of containing 15 μmol/L of 6-Me-BTA-2, […] of [^125I]3′-I-BTA-0 and 1 μmol/L of Aβ1-40 were prepared and subjected to the same procedures as described above in (6) and (7) to measure a radioactivity level. The measured radioactivity level was defined as the background radioactivity level, and used in the calculation of the inhibition ratio (hereinafter referred to as BG).
# (9) Using the radioactivity levels measured above in (7) and (8), the inhibition ratio was determined by the following formula (1-1).
# A graph in which values converted by probit transformation from the obtained inhibition ratios were plotted relative to logarithms of concentrations of compounds for evaluation was prepared to obtain an approximate straight line by the least square method. Using the line, the concentration of each compound for evaluation was determined, at which the radioactivity level is half of the level of the sample free from each compound for evaluation, and was defined as a 50% inhibition concentration of each compound (hereinafter referred to as IC50% value). Using the value as an indicator, affinity of each compound for evaluation with amyloid (aggregated Aβ1-40) was evaluated.
# [7] = Partition coefficient based on HPLC; type: physicochemical; details: mobile phase 50 mM triethylamine phosphate (pH 7.2)/acetonitrile=40/60
# Description: Measurements of partition coefficient based on HPLC The partition coefficient by HPLC (hereinafter referred to as log PHPLC) was measured by the following method.
# First, compounds for evaluation shown in Table 1-5 were dissolved at a concentration of 1 mg/mL in methanol containing 10% dimethylsulfoxide to prepare sample solutions. One μL of the sample solution was subjected to HPLC analysis under the following conditions to determine the elution time (t0) of the solvent and the elution time (tR) of each compound.
# Column: Prodigy ODS (3) (product name; manufactured by phenomenex; size: 4.6×250 mm)
# Mobile phase: a mixed solution of 50 mM triethylamine phosphate (pH 7.2)/acetonitrile=40/60
# Detector: ultraviolet visible absorptiometer (detection wavelength: 282 nm)
# Using the obtained t0 and tR, the retention factor (hereinafter referred to as K′HPLC value) of each compound for evaluation was determined according to the following calculation formula (1-3).
# After the individual solutions were stirred for 30 seconds, the solutions were centrifuged at 2,000 rpm for 60 minutes. 1 mL each of the octanol phase and the water phase was fractionated, and the radioactivity was measured by an autowell gamma system (manufactured by Aloka Co., Ltd.: Type ARC-301B). Based on the obtained radioactivity, log Poctanol values were calculated according to the above equation (1-2). […]
# [8] = Unspecific accumulation at sites without amyloid (applicant's studies); details: results of our studies
# [9] = International Publication No. WO03/106439; cited from earlier work
# [10] = Partition coefficient based on the octanol extraction method; type: physicochemical; details: octanol / 10 mmol/L phosphate buffer (pH 7.4)
# Description: After the mixture was centrifuged with a low-speed centrifuge (2000 rpm×60 min.), the octanol layer and the water layer were sampled each in an amount of 1 mL, and subjected to measurement of radioactivity count with an autowell gamma system (manufactured by Aloka, Type: ARC-301B). Using the obtained radioactivity count, log Poctanol was calculated in accordance with the equation (1-2).
# [11] = Transferability into brain and clearance; type: in vivo, male Wistar rats; details: rats, intravenous injection
# Text: Three animals were used for Experiment I-20 and Comparative Experiment I-9, and two animals were used for Experiment I-21 at the respective time points.
# [12] = Transferability into brain and clearance (2); type: in vivo, male Wistar rats; details: rats, intravenous injection, Table 1-10
# Description: 0.05 mL each of these solutions was injected under thiopental anesthesia into the tail vein of respective Wistar rats (7-week old). The rats were sacrificed by bleeding from abdominal artery, and brains were removed and subjected to measurement of mass of brains and further subjected to measurement of radioactivity (hereinafter referred to as A in this Example) with a single channel analyzer (detector type: SP-20 manufactured by OHYO KOKEN KOGYO Co., Ltd.) 2, 5, 30 and 60 minutes after the injection. Also, radioactivity (hereinafter referred to as B in this Example) of the rest of the whole body was measured in the same manner as above. Using these measurement results, radioactive distribution per unit weight of brain (% ID/g) at the respective time points were calculated in accordance with the following formula (1-7).
# Three animals were used for experiment at the respective time points.
# [13] = Partition coefficient based on the octanol extraction method (Example I-29); type: physicochemical; details: octanol / 10 mmol/L phosphate buffer (pH 7.4), Table I-9
# Description: To 2 mL of octanol, 10 μL each of the prepared sample solutions was added, and 2 mL of a 10 mmol/L phosphate buffer (pH 7.4) was further added, followed by stirring for 30 seconds.
smiles,measurement,setting,value
"FCCOc1ccc(-c2cn3cc(I)ccc3n2)cc1 [Compound I-4, 2-[4′-(2″-fluoroethoxy)phenyl]-6-iodoimidazo[1,2-a]pyridine]","Mutagenicity, TA100, With addition of S9mix",[1]; with S9mix,Negative
same,"Mutagenicity, TA100, Without addition of S9mix",[1]; without S9mix,Negative
same,Ames test judgment,[2],negative
same,capability of inducing chromosome aberration,[3],negative
same,"mutagenicity (in vivo), induction of micronucleus",[4],negative
same,"Mutagenicity, TA98, With addition of S9mix",[5]; with S9mix,Negative
same,"Mutagenicity, TA98, Without addition of S9mix",[5]; without S9mix,Negative
same,IC50,[6],0.9 nM
"CN(C)c1ccc(-c2cn3cc(I)ccc3n2)cc1 [IMPY, 6-iodo-2-[4′-(N,N-dimethylamino)phenyl]imidazo[1,2-a]pyridine]",logPHPLC value,[7],2.1
same,unspecific accumulation on sites other than amyloid deposition,[8],accumulates unspecifically on white matter or other sites where amyloid is not deposited
same,reverse mutation test,[9],positive
"CN(C)c1ccc(-c2cn3cc([123I])ccc3n2)cc1 [[^123I]-IMPY, reference compound]",logPoctanol value,[10],2.1
same,"Radioactive distribution per unit weight in brain, After 2 min.",[11]; 2 min.,1.02 % ID/g
same,"Radioactive distribution per unit weight in brain, After 5 min.",[11]; 5 min.,0.99 % ID/g
same,"Radioactive distribution per unit weight in brain, After 30 min.",[11]; 30 min.,0.20 % ID/g
same,"Radioactive distribution per unit weight in brain, After 60 min.",[11]; 60 min.,0.08 % ID/g
same,"Radioactive distribution per unit weight in brain, After 2 min.",[12]; 2 min.,1.19 % ID/g
same,"Radioactive distribution per unit weight in brain, After 5 min.",[12]; 5 min.,0.97 % ID/g
same,"Radioactive distribution per unit weight in brain, After 30 min.",[12]; 30 min.,0.23 % ID/g
same,"Radioactive distribution per unit weight in brain, After 60 min.",[12]; 60 min.,0.09 % ID/g
same,logPoctanol value,[13],2.1
